Measured values taken from patent US8114583B2, “Switch-region: target and method for inhibition of bacterial RNA polymerase” (priority 2005, dated 2012).
Several values for one entry are separate records, joined by “and”; a condition that tells them apart may be missing. Equal entries are not always repeated. Where two headings read alike, the source gives them in different places.

How the values were obtained:
[1] = test system: Escherichia coli with substitutions in RNAP β′ subunit (rpoC) or β subunit (rpoB); test: MIC ratio (MIC mutant/MIC wild-type) of resistant rpoC/rpoB mutants; type: cell-based
Source text: To identify determinants for function of Myx, Applicant has performed random mutagenesis of genes encoding Escherichia coli RNAP β′ subunit (rpoC) and β subunit (rpoB), and has isolated and sequenced five independent Myx-resistant mutants (methods as described in Mukhopadhyay, et al. (2004) Mol. Cell. 14, 739-751).
To further define determinants for function of Myx, Applicant has performed saturation mutagenesis of genes encoding Escherichia coli RNAP β′ subunit (rpoC) and β subunit (rpoB), and has isolated and sequenced more than 100 independent Myx-resistant mutants (methods as described in Mukhopadhyay, et al. (2004) Mol. Cell. 14, 739-751; Tuske, et al. […] Cell 122, 541-552). Saturation mutagenesis was performed using a set of “doped” oligodeoxyribonucleotide primers targeting all codons for residues located within 30 Å of β′ residue 345 and β residues 1275 and 1292 in the three-dimensional structure of bacterial RNAP (primer sequences in Table 2). […]

[2] = test system: Escherichia coli DH21tolC; test: bacteriocidal activity; type: cell-based; conditions: unpublished data
Escherichia coli RNAP = Escherichia coli RNAP (Escherichia coli, UniProt P0A8T7+P0A8V2); type: biochemical
Source text: (A) DNA construct SEQ ID NO:133. (B) Data.
(A) DNA construct SEQ ID NO:134. (B) Data.
Applicant has performed transcription and DNA-binding experiments in order to define the basic mechanism of transcription inhibition by Myx (methods as in Mukhopadhyay, et al. (2004) Mol. Cell. 14, 739-751).
Applicant has performed DNA binding experiments with a series of subfragments of promoter DNA in order to map the interaction of RNAP with promoter DNA inhibited by Myx (methods as in Mukhopadhyay, et al. (2004) Mol. Cell. 14, 739-751). […] This DNA segment corresponds, precisely, to the DNA segment proposed to bind within the RNAP active-center cleft, and to be affected by clamp opening and closing, in structural models of transcription initiation complexes (see Ebright (2000) J. Mol. Biol. 304, 687-698; Murakami, et al. (2003) Curr. Opin. Stuct. Biol. 12, 89-97; Borukhov & Nudler (2003) Curr. Opin. Microbiol. 6, 93-100; Murakami, et al. (2002) Science 296, 1285-1290; Naryshkin, et al. (2000) Cell 101, 601-611; Mekler, et al. (2002) Cell 108, 599-614).

Bacillus subtilis = conditions: cited from earlier work
B. megaterium = conditions: cited from earlier work
Micrococcus luteus = conditions: cited from earlier work
[3] = test system: Corynebacterium mediolanum; conditions: cited from earlier work
[4] = test system: Escherichia coli DH21tolC; conditions: cited from earlier work
bacterial RNAP = bacterial RNAP (Escherichia coli, UniProt P0A8T7+P0A8V2); conditions: read-out: Ki, inhibition of bacterial RNAP; cited from earlier work
eukaryotic RNAP II = conditions: cited from earlier work
[5] = target: T. thermophilus RNAP holoenzyme (Thermus thermophilus, UniProt Q8RQE8+Q8RQE9); test: inhibition of T. thermophilus RNAP holoenzyme; type: biochemical; conditions: unpublished data; read-out: K, inhibition of T. thermophilus RNAP holoenzyme
[6] = target: wild-type Escherichia coli RNAP and [Arg345]β′-RNAP (Escherichia coli, UniProt P0A8T7+P0A8V2, K345R); conditions: [Arg345]β′-RNAP versus wild-type RNAP; FIG. 7
Enterococcus faecium = conditions: cited from earlier work
Enterobacter cloacae = conditions: cited from earlier work
Mycobacterium smegmatis = conditions: cited from earlier work
Pseudomonas aeruginosa = conditions: cited from earlier work
mice = conditions: at concentrations up to 100 mg/kg; cited from earlier work
Staphylococcus aureus = conditions: cited from earlier work

## C/C=C/C/C=C(\C)C(O)CC/C(C)=C/C=C(\C)C(=O)c1c(O)cc([C@H](C)CC/C=C/NC(=O)OC)oc1=O (some centres unmarked) [Cor, corallopyronin]
[1]; rpoB 1255 Thr→Ile
  MIC ratio (MIC, mutant/MIC, wild-type): 4
[1]; rpoB 1275 Val→Met
  MIC ratio (MIC, mutant/MIC, wild-type): >8
[1]; rpoB 1275 Val→Phe
  MIC ratio (MIC, mutant/MIC, wild-type): >8
[1]; rpoB 1278 Leu→Val
  MIC ratio (MIC, mutant/MIC, wild-type): 4
[1]; rpoB 1279 Glu→Gly
  MIC ratio (MIC, mutant/MIC, wild-type): 4
[1]; rpoB 1279 Glu→Lys
  MIC ratio (MIC, mutant/MIC, wild-type): 8
[1]; rpoB 1283 Ala→Val
  MIC ratio (MIC, mutant/MIC, wild-type): 4
[1]; rpoB 1285 Tyr→Asp
  MIC ratio (MIC, mutant/MIC, wild-type): 1
[1]; rpoB 1291 Leu→Phe
  MIC ratio (MIC, mutant/MIC, wild-type): 1
[1]; rpoB 1298 Val→Leu
  MIC ratio (MIC, mutant/MIC, wild-type): 2
[1]; rpoB 1315 Met→Leu
  MIC ratio (MIC, mutant/MIC, wild-type): 2
[1]; rpoB 1317 Pro→Leu
  MIC ratio (MIC, mutant/MIC, wild-type): 2
[1]; rpoB 1320 Pro→Ala
  MIC ratio (MIC, mutant/MIC, wild-type): 4
[1]; rpoB 1322 Ser→Pro
  MIC ratio (MIC, mutant/MIC, wild-type): 4
[1]; rpoB 1322 Ser→Thr
  MIC ratio (MIC, mutant/MIC, wild-type): 4
[1]; rpoB 1322 Ser→Tyr
  MIC ratio (MIC, mutant/MIC, wild-type): 4
[1]; rpoB 1322 Ser→Val
  MIC ratio (MIC, mutant/MIC, wild-type): 8
[1]; rpoB 1325 Val→Leu
  MIC ratio (MIC, mutant/MIC, wild-type): 4
[1]; rpoB 1326 Leu→Trp
  MIC ratio (MIC, mutant/MIC, wild-type): >8
[1]; rpoC 345 Lys→Arg
  MIC ratio (MIC, mutant/MIC, wild-type): >8
[1]; rpoC 345 Lys→Asn
  MIC ratio (MIC, mutant/MIC, wild-type): 8
[1]; rpoC 345 Lys→Thr
  MIC ratio (MIC, mutant/MIC, wild-type): 8
[1]; rpoC 1346 Gly→Asp
  MIC ratio (MIC, mutant/MIC, wild-type): 4
[1]; rpoC 1351 Val→Phe
  MIC ratio (MIC, mutant/MIC, wild-type): >8
[1]; rpoC 1352 Ile→Asn
  MIC ratio (MIC, mutant/MIC, wild-type): 4
[1]; rpoC 1352 Ile→Ser
  MIC ratio (MIC, mutant/MIC, wild-type): 4
[1]; rpoC 1354 Gly→Cys
  MIC ratio (MIC, mutant/MIC, wild-type): 2
[2]
  bacteriocidal or not: bacteriocidal
Escherichia coli RNAP
  effects on transcription, promoter binding, and promoter-subfragment binding: same mechanism as Myx
Bacillus subtilis
  MIC: ≤ 10 µg/mL
B. megaterium
  MIC: ≤ 10 µg/mL
Micrococcus luteus
  MIC: ≤ 10 µg/mL
[3]
  MIC: ≤ 10 µg/mL
[4]
  MIC: ≤ 10 µg/mL
Bacterial RNAP
  Ki: 4000 nM
Eukaryotic RNAP II
  inhibition of eukaryotic RNAP II: does not inhibit

## CCC/C(C)=C/C=C(\C)C(=O)c1c(O)cc([C@H](C)CC/C=C/NC(=O)OC)oc1=O [Myx, myxopyronin]
[1]; rpoB 1255 Thr→Ile
  MIC ratio (MIC, mutant/MIC, wild-type): 2
[1]; rpoB 1275 Val→Met
  MIC ratio (MIC, mutant/MIC, wild-type): >32
[1]; rpoB 1275 Val→Phe
  MIC ratio (MIC, mutant/MIC, wild-type): >32
[1]; rpoB 1278 Leu→Val
  MIC ratio (MIC, mutant/MIC, wild-type): 2
[1]; rpoB 1279 Glu→Gly
  MIC ratio (MIC, mutant/MIC, wild-type): 32
[1]; rpoB 1279 Glu→Lys
  MIC ratio (MIC, mutant/MIC, wild-type): >32
[1]; rpoB 1283 Ala→Val
  MIC ratio (MIC, mutant/MIC, wild-type): 2
[1]; rpoB 1285 Tyr→Asp
  MIC ratio (MIC, mutant/MIC, wild-type): 2
[1]; rpoB 1291 Leu→Phe
  MIC ratio (MIC, mutant/MIC, wild-type): 2
[1]; rpoB 1298 Val→Leu
  MIC ratio (MIC, mutant/MIC, wild-type): 4 and 2
[1]; rpoB 1315 Met→Leu
  MIC ratio (MIC, mutant/MIC, wild-type): 2
[1]; rpoB 1317 Pro→Leu
  MIC ratio (MIC, mutant/MIC, wild-type): 2
[1]; rpoB 1320 Pro→Ala
  MIC ratio (MIC, mutant/MIC, wild-type): 2
[1]; rpoB 1322 Ser→Pro
  MIC ratio (MIC, mutant/MIC, wild-type): 32
[1]; rpoB 1322 Ser→Thr
  MIC ratio (MIC, mutant/MIC, wild-type): 2
[1]; rpoB 1322 Ser→Tyr
  MIC ratio (MIC, mutant/MIC, wild-type): 2
[1]; rpoB 1322 Ser→Val
  MIC ratio (MIC, mutant/MIC, wild-type): 16
[1]; rpoB 1325 Val→Leu
  MIC ratio (MIC, mutant/MIC, wild-type): 2
[1]; rpoB 1326 Leu→Trp
  MIC ratio (MIC, mutant/MIC, wild-type): 1
[1]; rpoC 345 Lys→Arg
  MIC ratio (MIC, mutant/MIC, wild-type): >32
[1]; rpoC 345 Lys→Asn
  MIC ratio (MIC, mutant/MIC, wild-type): 32
[1]; rpoC 345 Lys→Thr
  MIC ratio (MIC, mutant/MIC, wild-type): 32
[1]; rpoC 1346 Gly→Asp
  MIC ratio (MIC, mutant/MIC, wild-type): 1
[1]; rpoC 1351 Val→Phe
  MIC ratio (MIC, mutant/MIC, wild-type): >32
[1]; rpoC 1352 Ile→Asn
  MIC ratio (MIC, mutant/MIC, wild-type): 2
[1]; rpoC 1352 Ile→Ser
  MIC ratio (MIC, mutant/MIC, wild-type): 2
[1]; rpoC 1354 Gly→Cys
  MIC ratio (MIC, mutant/MIC, wild-type): 2
[2]
  bacteriocidal or not: bacteriocidal
[5]
  Ki: 20000 nM
Escherichia coli RNAP
  interaction of RNAP with promoter DNA: preventing stable interaction
  interaction of RNAP with promoter DNA segment comprising positions −40 to −12: does not inhibit
  interaction of RNAP with segment of promoter DNA comprising positions −11 to +15: inhibits
[6]
  effect of substitution within the switch-region sequence on binding of Myx to RNAP: reduces binding
Bacillus subtilis
  MIC: ≤ 10 µg/mL
B. megaterium
  MIC: ≤ 10 µg/mL
Micrococcus luteus
  MIC: ≤ 10 µg/mL
Enterococcus faecium
  MIC: ≤ 10 µg/mL
Enterobacter cloacae
  MIC: ≤ 10 µg/mL
[3]
  MIC: ≤ 10 µg/mL
Mycobacterium smegmatis
  MIC: ≤ 10 µg/mL
Pseudomonas aeruginosa
  MIC: ≤ 10 µg/mL
Bacterial RNAP
  Ki: 1000 nM
Eukaryotic RNAP II
  inhibition of eukaryotic RNAP II: does not inhibit
mice
  acute toxicity in mice: no acute toxicity

## C/C(=C\Cc1ccccc1)CCC(=O)C[C@H]1C[C@H](O)C/C(C)=C/C/C=C/C/C(CC(=O)O)=C\C(=O)O1 [Rip, ripostatin]
[1]; rpoB 1255 Thr→Ile
  MIC ratio (MIC, mutant/MIC, wild-type): 4
[1]; rpoB 1275 Val→Met
  MIC ratio (MIC, mutant/MIC, wild-type): 8
[1]; rpoB 1275 Val→Phe
  MIC ratio (MIC, mutant/MIC, wild-type): >16
[1]; rpoB 1278 Leu→Val
  MIC ratio (MIC, mutant/MIC, wild-type): >16
[1]; rpoB 1279 Glu→Gly
  MIC ratio (MIC, mutant/MIC, wild-type): >16
[1]; rpoB 1279 Glu→Lys
  MIC ratio (MIC, mutant/MIC, wild-type): 4
[1]; rpoB 1283 Ala→Val
  MIC ratio (MIC, mutant/MIC, wild-type): 4
[1]; rpoB 1285 Tyr→Asp
  MIC ratio (MIC, mutant/MIC, wild-type): 4
[1]; rpoB 1291 Leu→Phe
  MIC ratio (MIC, mutant/MIC, wild-type): 4
[1]; rpoB 1298 Val→Leu
  MIC ratio (MIC, mutant/MIC, wild-type): 4
[1]; rpoB 1315 Met→Leu
  MIC ratio (MIC, mutant/MIC, wild-type): 4
[1]; rpoB 1317 Pro→Leu
  MIC ratio (MIC, mutant/MIC, wild-type): 2
[1]; rpoB 1320 Pro→Ala
  MIC ratio (MIC, mutant/MIC, wild-type): 4
[1]; rpoB 1322 Ser→Pro
  MIC ratio (MIC, mutant/MIC, wild-type): >16
[1]; rpoB 1322 Ser→Thr
  MIC ratio (MIC, mutant/MIC, wild-type): 4
[1]; rpoB 1322 Ser→Tyr
  MIC ratio (MIC, mutant/MIC, wild-type): 2
[1]; rpoB 1322 Ser→Val
  MIC ratio (MIC, mutant/MIC, wild-type): >16
[1]; rpoB 1325 Val→Leu
  MIC ratio (MIC, mutant/MIC, wild-type): 4
[1]; rpoB 1326 Leu→Trp
  MIC ratio (MIC, mutant/MIC, wild-type): >16
[1]; rpoC 345 Lys→Arg
  MIC ratio (MIC, mutant/MIC, wild-type): >16
[1]; rpoC 345 Lys→Asn
  MIC ratio (MIC, mutant/MIC, wild-type): 8
[1]; rpoC 345 Lys→Thr
  MIC ratio (MIC, mutant/MIC, wild-type): >16
[1]; rpoC 1346 Gly→Asp
  MIC ratio (MIC, mutant/MIC, wild-type): 4
[1]; rpoC 1351 Val→Phe
  MIC ratio (MIC, mutant/MIC, wild-type): >16
[1]; rpoC 1352 Ile→Asn
  MIC ratio (MIC, mutant/MIC, wild-type): >16
[1]; rpoC 1352 Ile→Ser
  MIC ratio (MIC, mutant/MIC, wild-type): >16
[1]; rpoC 1354 Gly→Cys
  MIC ratio (MIC, mutant/MIC, wild-type): 4
[2]
  bacteriocidal or not: bacteriocidal
Escherichia coli RNAP; results not shown
  effects on transcription, promoter binding, and promoter-subfragment binding: same mechanism as Myx
Staphylococcus aureus
  MIC: ≤ 1 µg/mL
[4]
  MIC: ≤ 1 µg/mL
Bacterial RNAP
  Ki: 300 nM
Eukaryotic RNAP II
  inhibition of eukaryotic RNAP II: does not inhibit
